# Entries after “also recorded” stand apart in the source; their conditions may differ.
# What was measured:
# [1] = tested on: HIV-1
# [2] = tested on: RSV; assay: RSV plaque inhibition assay: peptide pre-incubated with RSV, added to HEp-2 cells; type: cell-based, respiratory syncytial virus (A2 strain); conditions: 3 days; for plaque formation: peptide 5 mg/ml and 10 mg/ml incubated 1 h with RSV, vs PBS controls
# [3] = tested on: RSV; assay: Cell-to-cell spread / syncytium formation of RSV in HEp-2 monolayers, peptide added to cells; type: cell-based, respiratory syncytial virus
# [4] = tested on: parainfluenza virus 3 (PIV3); assay: Syncytium formation by parainfluenza virus 3 in HEp-2 cells; type: cell-based
# Method: RhoA77-95 was also added to HEp-2 cells in conjunction with parainfluenza virus 3 (PIV3) as infectious agent, as well as MT-2 cells, in conjunction with human immunodeficiency virus 1 (HIV-1) as infectious agent. Both viruses are known to cause the formation of syncytia during infection.
# [5] = tested on: HIV; assay: MAGI cell assay of HIV entry; type: cell-based; conditions: β-galactosidase activity as endpoint
# [6] = tested on: RSV; assay: RSV infection of BALB/c mice, intranasal peptide treatment; type: in vivo
# [7] = tested on: RSV; type: cell-based, respiratory syncytial virus; conditions: protein added to RSV prior to infection of HEp-2 cells
# [8] = 10 amino acid peptides added to HEp-2 cell medium
# [9] = 500 μg intranasally at the time of RSV challenge, 10^7 pfu RSV
# [10] = 500 μg intranasally on day 4 after RSV infection, vs PBS-treated controls
substance,measurement,setting,value
"RhoA67-85: 19 amino acid peptide comprising RhoA amino acids 67-85 (DRLRPLSYPDTDVILMCFS; UniProt P61586 67-85, looked up, fragment)",destruction of infected MT-2 cells,[1],completely destroyed by day 14
same,syncytium formation by HIV-1,[1],visible syncytia by day 4
same,plaque formation,[2],no inhibition
"RhoA77-86: 10 amino acid peptide, RhoA residues 77-86 (TDVILMCFSI; UniProt P61586 77-86, looked up, fragment)",syncytium formation,[3]; [8],did not block
"RhoA77-95: 19 amino acid peptide comprising the sequence of amino acids 77-95 of the RhoA protein (TDVILMCFSIDSPDSLENI; UniProt P61586 77-95, looked up, fragment)",syncytium formation by PIV3,[4],inhibited
same,HIV virus entry into cells,[5],Inhibition
same,illness,[6]; [9],no discernable illness
same,weight loss,[6]; [9],no discernable illness or weight loss
same,signs of illness,[6]; [10],markedly diminished
same,weight loss,[6]; [10],slight reduction
same,inhibition of RSV in vivo,[6]; administered to mice,inhibited RSV in vivo
same,Day 5 RSV Titer (Log10 pfu/gram lung ± S.D.),"[6]; peptide treatment on day 0 (time of challenge), lung plaque assay",3.7 ± 0.3 Log10 pfu/gram lung
same,Day 5 RSV Titer (Log10 pfu/gram lung ± S.D.),"[6]; peptide treatment on day 4, lung plaque assay",4.7 ± 0.3 Log10 pfu/gram lung
same,decrease of RSV titers in lung,"[6]; treatment at the time of infection, day 5 lungs",over 100 fold
same,reduction of RSV titers in lung,"[6]; treatment on day 4, day 5 lungs",more than 10 fold
same,HIV-1 replication (RT and p24 assays),[1],inhibited
same,HIV-1 virus entry into / infection of MT-2 cells,[1],inhibited
same,reverse transcriptase activity in culture supernatants,[1],undetectable
same,syncytia formation,"[3]; peptide 5 mg/ml added 20 or 24 hours post-adsorption, HEp-2, evaluated after three days",inhibited syncytia formation
same,number of virus infected cells,"[3]; peptide 5 mg/ml added 4 hours after RSV adsorption, HEp-2, evaluated after three days",reduced the number of virus infected cells and limited infection to single cells
same,cell-to-cell spread of RSV,"[3]; peptide added after RSV adsorption, HEp-2",inhibited
same,antigen-positive cells by immunoperoxidase staining,[2]; RSV-specific antibody,no antigen-positive cells were found
same,plaque formation,[2],completely blocked; also recorded: inhibited; also recorded: inhibit plaque formation
"RhoA80-89: 10 amino acid peptide comprising amino acid residues 80-89 of the RhoA protein sequence (ILMCFSIDSP; UniProt P61586 80-89, looked up, fragment)",RSV entry into HEp-2 cells,[3]; [8],completely blocked
"RhoA83-92: 10 amino acid peptide, RhoA residues 83-92 (CFSIDSPDSL; UniProt P61586 83-92, looked up, fragment)",syncytium formation,[3]; [8],did not block
"RhoA87-105: 19 amino acid peptide comprising RhoA amino acids 87-105 (DSPDSLENIPEKWTPEVKH; UniProt P61586 87-105, looked up, fragment)",destruction of infected MT-2 cells,[1],completely destroyed by day 14
same,syncytium formation by HIV-1,[1],visible syncytia by day 4
same,plaque formation,[2],no inhibition
"whole RhoA protein: whole RhoA protein, 193 amino acid small GTP-binding protein",number and size of plaques,[7],increased

# Source: patent publication US6814968B1, “Inhibition of viral infection and spread with viral and RhoA-derived peptides” (priority 1998, dated 2004)
